In a melting point compilation (Tetko et al.; mined from patent text by program, amines drawn as free bases though some values may be those of a salt):

SMILES | melting point [°C]
CNC(=O)c1ccc(C)c(-c2nc(S(C)(=O)=O)nc3c2CNC(=O)N3c2c(F)cccc2F)c1 | 275 to 278
Nc1scc2c(C(=O)NC3CC3)nn(-c3ccc(Cl)cc3)c(=O)c12 | 188 to 190
O=C(O)C=Cc1ccc(Cn2ccnc2)c(Cl)c1 | 227 to 229
COc1ccc2cc(-c3ccnc(N(C)C)n3)cc(NC3CCN(c4ncnc5[nH]nc(Br)c45)CC3)c2c1 | 167 to 172
CNC(=S)n1nc(N)nc1N | 176 to 178
CCN1CC(=O)C(C#N)=C1N | 278 to 280
Cc1cccc(N2CCN(CCCc3ccc(C4CCC(=O)N4)cc3)CC2)c1 (configuration not stated) | 87 to 89
CC(Cl)(Cl)C(NC(=O)c1cccc(Cl)c1)NC(=NC#N)Nc1ccc(C(F)(F)F)nc1 (configuration not stated) | 191 to 192
O=C1c2cccc(NCCc3ccccc3)c2C(=O)c2cccc(NCCc3ccccc3)c21 | 205 to 207
CC(CN(C(=O)c1ccco1)c1c(C)cccc1C)=NO | 155 to 156
O=C1N=C(N2CCSCC2)SC1=Cc1cccc(-c2cc(F)c(O)c(C34CC5CC(CC(C5)C3)C4)c2)c1 | 180 to 184
Clc1cccnc1N1CCN(c2nc3ccc(Br)cc3[nH]2)CC1 | 207 to 208
CCCCCCCCCCCN=C=S | 71 to 72
COC(=O)c1sc2c(c1N=CN(C)C)c1ccccc1c(=O)n2-c1ccccc1 | 225 to 227
CCc1nc(OC)c(NC(=O)N2CCN(c3cc(C)cc(C)c3)CC2)cc1C(=O)NC(C)C(=O)Nc1cc(CO)cc(Nc2c3ccccc3nc3ccc(C)cc23)c1 (configuration not stated) | 164 to 166
COC1=Cc2cc(Cl)ccc2C(O)(C2CCN(C)CC2)c2ccsc21 (configuration not stated) | 223 to 227
COc1ccc2c(c1)COc1c-2ccc2c(OC)cccc12 | 166 to 167
OCc1c(Cl)nc(C2CCCCC2)n1Cc1ccccc1 | 160 to 161
Clc1ccc2c(c1)C(c1ccccc1)=NCc1nnc(CNCC3CC3)n1-2 | 154 to 157
CC(Cl)(Cl)C(NC(=O)c1cccc(Cl)c1)NC(=NC#N)Nc1cccnc1 (configuration not stated) | 142 to 143
CC(C(=O)O)c1ccc2c(c1)C(=O)Cc1cc(F)ccc1S2 (configuration not stated) | 213 to 214
CCc1c(Oc2cc(C)cc(C)c2)n(CC2CC=CC2)c(=O)[nH]c1=O | 179 to 180
O=C(O)Cc1cccc2c(=O)cc(-c3cc(F)cc(F)c3)oc12 | 221 to 223
CN1CCN(c2ccccc2C=C2SCCN(c3ccc(Cl)c(Cl)c3)C2=O)CC1 | 155 to 157

SMILES | melting point [°C]
CCC(C)COc1ccc(N=Nc2ccc(F)cc2)cc1 (configuration not stated) | 64.3 to 65
C1=Cc2ccccc2SS1 | 82 to 83
CCCCCCCCCCCCCCCCOCC(CF)COC(c1ccccc1)(c1ccccc1)c1ccccc1 (configuration not stated) | 32
c1csc(-c2cnc(COc3ccc(CCCn4ccnc4)cc3)o2)c1 | 75 to 76
N#Cc1ccccc1C(Cc1ccc(C(F)(F)F)cc1)Cn1cncn1 (configuration not stated) | 123
CCN(CC)CCNc1nc2cccnc2n(-c2ccc(Cl)cc2)c1=O | 149 to 150
c1ccc2c(c1)COc1ccccc1-2 | 97
COCCN(CCOC)C1CCN(c2ccc(NC(=O)c3cnn(-c4ccc(Cl)cc4)c3C)cc2C#N)CC1 | 152
COc1ccc(C=C[N+](=O)[O-])c(Cl)c1OC | 88 to 91
CN1CCC(N2C(=O)CN=C(c3ccccc3Cl)c3cc(Cl)ccc32)CC1 | 146 to 147
CCn1cc(C(=O)NCc2ccc(Cl)cc2)c(=O)c2cc(C#CCOC(=O)CCC(=O)O)sc21 | 180 to 182
CC12CCC3c4ccc(C(=O)O)cc4CCC3C1CCC2C(=O)C#Cc1ccccc1 (configuration not stated) | 174 to 178
CS(=O)(=O)c1ccc(-c2cc(=O)cc(CO)o2)cc1 | 120
CN(C)C(=O)C1(C)CN(C(=O)Nc2ccc(Cl)cc2)N=C1c1ccc(Cl)cc1 (configuration not stated) | 194 to 197
COC1=Nc2cc(OC)c(F)cc2C(c2ccccc2Cl)=NC1C(C)=O (configuration not stated) | 172 to 174
O=C1c2ccccc2CN1C1CCN(c2ccc(C(OCc3ccncc3)c3ccccc3)cc2)CC1 (configuration not stated) | 77 to 81
COc1ccc(C(=O)c2cn(C)c3ccc([N+](=O)[O-])cc23)cc1 | 229
Cc1cc(SCC#Cc2cccc(C(F)(F)F)c2)ccc1OCC(=O)O | 81 to 82
COc1cc(/C=C/c2cc(OC)c(OC)c(OC)c2)cc(OC)c1OC | 220
CCc1nnc(-c2ccc(C)c(-c3ccc(F)cc3)n2)nc1CC | 108
COCCOc1nc(C)nc(N2CCC(c3ccc(F)cc3)CC2)c1[N+](=O)[O-] | 45 to 48
Cn1nc(C(F)(F)F)c(CS(=O)(=O)C2=NOC(C)(C)C2)c1OC1CCCC1 | 113 to 114
COc1ccc(C(C#N)Nc2ccc(S(C)(=O)=O)cc2)cc1 (configuration not stated) | 131 to 132

More lines, now with the values ahead:

melting point [°C] | SMILES
57 to 59 | COc1ccccc1-c1cnn2ccc(N3CCN(C(=O)OC(C)C)CC3)nc12
184 to 186 | COc1ccc(S(=O)(=O)N2CCc3cccc(-c4ccc(N)cc4)c32)cc1
204 to 205 | CC(=O)Nc1cc(N)cc([N+](=O)[O-])c1
212 to 220 | Cc1nc(-c2ccc(C#N)cc2)cn1-c1ccc(C#N)cc1
124 to 126 | CC(C)=C(C(=O)O)c1ccc(F)cc1
214 to 216 | CC(C)Cn1cnc2c(N)nc3ccc(CCO)cc3c21
188 to 190 | CCCn1c(COCC)nc2c(N)nc3ccc(OCCCN4CCCC4=O)cc3c21
133 | O=C1NC(=O)C(Cc2ccc(OCCOc3ccccc3)cc2)S1 (configuration not stated)
180 to 182 | CC(=O)Nc1nc2c(s1)C(=O)C(Br)CC2 (configuration not stated)
216 | CC(=O)Nc1ccc(Cl)cc1NC(C)=O
210 to 211 | O=C(Nc1n[nH]c(=S)s1)N[C@@H](Cc1ccccc1)C(=O)N1CCN(c2ccccc2)CC1
174 to 176 | O=C(O)CCC(=O)c1ccc(-c2ccc(F)cc2)cc1
138 to 140 | COc1ccc(Nc2nc(NC(C)C)nc(Oc3ccccc3C#CC(C)(C)O)n2)cc1Cl
45 | CCCCCCN1Cc2cc3ccccc3n2Cc2ccccc21
114 to 116 | COC(=O)C(C(=O)OC)C(Cc1cc(Cl)ccc1N)c1ccc(OC)cc1 (configuration not stated)
253 to 255 | CCOCc1nc2c(N)nc3cc(OCc4ccccc4Cl)ccc3c2n1CC(C)(C)NS(C)(=O)=O
111 to 113 | CNC(=O)c1cc(-c2ccc(OC)c(OC)c2)nn(CC(C)C)c1=O
138 to 140 | CCCn1nc2c(N)nc3ccccc3c2c1CCCc1ccn(Cc2ccccc2)c1
149 to 150 | COc1cc(CCCC2SC(=O)NC2=O)ccc1OCc1nc(-c2ccccc2)sc1C (configuration not stated)
109 to 112 | N#Cc1ncc(Sc2ccccc2)nc1C#N
118 to 120 | CCCCOCCOc1ccc(-c2ccc3c(c2)C=C(C(=O)Nc2ccc(OCc4nccn4CCC)cc2)CCN3CC(C)C)cc1
182 to 185 | CC(C)N1CCN(Cc2ccc3c(c2)-c2[nH]nc(-c4ccsc4)c2C3)CC1
82 to 83 | Cc1cc([N+](=O)[O-])ccc1OC1CCN(C(=O)OC(C)(C)C)CC1
105 | CCC(O)(c1cc(OC)cc(OCc2ccc3ccccc3c2)c1)c1nccs1 (configuration not stated)
147 to 148 | CC(=O)Oc1cccc(C(=O)O)c1C

melting point [°C] | SMILES
142 to 143 | COc1cccc(-c2ccc3c(c2)C(C)(C)OC(=S)N3)c1
138 to 140 | CCCCCCCCCC(=O)Oc1ccc(/C=C2/C(=O)Nc3cc(OC)c(OC)cc32)cc1
208 to 210 | COc1cc(-c2nc(-n3nccn3)c3c(C)c(C#N)sc3n2)cc(OC)c1OC
137 to 138 | Cc1cc(N(C)Cc2ccc(-c3ccc(OC(F)(F)F)cc3)nc2)ccc1OCC(=O)O
108 to 109 | Cc1nc(C)c(C(C)(O)c2cccnc2)s1 (configuration not stated)
174 to 176 | COC(=O)c1ccc(CNC(=O)c2[nH]c(-c3cccs3)cc2-c2ccc(F)cc2)nc1
72 to 74 | Cc1cc(C)c(C(=O)c2ccccc2)c(OCC2CO2)c1 (configuration not stated)
127 to 128 | Cc1ccc(-c2ccc3c(c2)C=C(C(=O)Nc2ccc(CS(=O)c4ccccc4)cc2)CCO3)cc1 (configuration not stated)
116 | O=c1c2cc(Oc3ccc(Cl)cc3)ccc2ccn1Cc1cccnc1
220 | O=C(Nc1ccc2[nH]ncc2c1)O[C@@H](c1cc(F)cc(Cl)c1)[C@H]1CCCCN1
284 | CN1C(=O)C(N)=C(C#N)C1=O
84 to 85 | CC(Cc1ccc(O)cc1)N(CC(=O)c1ccccc1)Cc1ccc(OCc2ccccc2)c([N+](=O)[O-])c1 (configuration not stated)
223 to 225 | CS(=O)(=O)c1ccc(-c2[nH]c(C(O)(C(F)(F)F)C(F)(F)F)nc2-c2ccccc2)cc1
164 to 165 | CCCCCC(CC(=O)Nc1cc(C(=O)O)ccc1C(C)(C)C)c1ccc(C)cc1OC (configuration not stated)
93 to 95 | C=C(F)C(=O)Oc1c(I)cc(C(F)(F)F)cc1I
168 to 169 | CN(C(=O)C(C)(C)NC(=O)OCc1ccccc1)c1ccc([N+](=O)[O-])cc1C(=O)c1ccccc1F
90 to 91 | CC1(c2ccccc2)OC(=O)COC1=O (configuration not stated)
52 to 53 | CCCCNc1nc(-c2ccccc2)co1
260 to 266 | CNC(=O)c1ccc(N2CCN(Cc3cnc4c(c3)[nH]c(=O)n3cccc43)CC2)c(Cl)c1
142 | CC(C)(C)c1cc(Cn2nc(CCCCCCCCc3nn(Cc4cc(C(C)(C)C)c(O)c(C(C)(C)C)c4)c(=O)o3)oc2=O)cc(C(C)(C)C)c1O
122 | CC(=O)N(C)c1scc(C)c1C(=O)c1ccccc1
134 to 135 | CCCCn1c(=O)c2c(ncn2S(=O)(=O)c2ccc(OC)c(OC)c2)n(CCCC)c1=O
90 to 94 | CCNC(=O)c1c([Si](C)(C)C)sc(C)c1C
116 to 118 | CCCCOc1cc(CCC(=O)O)n(Cc2ccc(C(F)(F)F)cc2)n1
137 to 138 | CN(C)Cc1cc(C(=O)c2ccc(Cl)s2)cc(C(C)(C)C)c1O
